Experimental data taken from the NIST ThermoML archive (doi:10.1021/je700266n).

Assays:
[1] = 101 kPa, Liquid
[2] = xn = mol fraction of the nth substance listed; settings: 101 kPa, Liquid

CCCO [propan-1-ol]
[1]
Settings	mass density [kg/m3]
293.15 K	804.97
298.15 K	801.01
303.15 K	796.89
308.15 K	792.83
313.15 K	789.07
323.15 K	780.74
333.15 K	771.75
343.15 K	762.86

CCCCn1cc[n+](C)c1.F[P-](F)(F)(F)(F)F [1-butyl-3-methylimidazolium hexafluorophosphate]
[1]
Settings	mass density [kg/m3]
293.15 K	1371.57
298.15 K	1367.22
303.15 K	1362.86
308.15 K	1358.56
313.15 K	1354.3
323.15 K	1345.98
333.15 K	1337.7
343.15 K	1330.76

CCCCn1cc[n+](C)c1.F[B-](F)(F)F [1-butyl-3-methylimidazolium tetrafluoroborate]
[1]
Settings	mass density [kg/m3]
293.15 K	1195.71
298.15 K	1192.07
303.15 K	1188.37
308.15 K	1184.72
313.15 K	1181.43
323.15 K	1174.49
333.15 K	1166.89
343.15 K	1159.97

CC#N [acetonitrile]
[1]
Settings	mass density [kg/m3]
293.15 K	782.3
298.15 K	776.93
303.15 K	771.44
308.15 K	765.97
313.15 K	760.68
323.15 K	749.73
333.15 K	738.19
343.15 K	726.94

CCCCn1cc[n+](C)c1.F[B-](F)(F)F [1-butyl-3-methylimidazolium tetrafluoroborate] + CCCO
mass density [kg/m3], [2]
Settings	293.15 K	298.15 K	303.15 K	308.15 K	313.15 K	323.15 K	333.15 K	343.15 K
x1 = 0.3999	1054.66	1051.03	1047.17	1043.37	1039.88	1032.41	1024.28	1016.75
x1 = 0.4498	1072.68	1068.9	1065.03	1061.22	1057.72	1050.32	1042.29	1034.83
x1 = 0.5001	1089.08	1085.28	1081.39	1077.57	1074.09	1066.73	1058.77	1051.38
x1 = 0.6001	1117.7	1113.99	1110.15	1106.39	1103.01	1095.73	1087.82	1080.57
x1 = 0.6978	1141.41	1137.71	1133.91	1130.15	1126.78	1119.64	1111.83	1104.68
x1 = 0.8002	1163	1159.35	1155.61	1151.92	1148.61	1141.54	1133.81	1126.78
x1 = 0.9003	1180.65	1176.99	1173.25	1169.56	1166.26	1159.25	1151.58	1144.59
x1 = 1	1195.71	1192.07	1188.37	1184.72	1181.43	1174.49	1166.89	1159.97
